# Organism: Rattus norvegicus
# Assay: DrugMatrix - Regimen: Daily Repeat
# Format: toxicity, organism-based, Sprague-Dawley
# Set-up: regimen Daily Repeat, gender Male, age 6-8 weeks
# Conditions: in vivo, po, route oral GAVAGE, vehicle 100 % WATER; for ABSOLUTE BASOPHIL / ABSOLUTE EOSINOPHIL / ABSOLUTE LYMPHOCYTE / ABSOLUTE MONOCYTE / ABSOLUTE SEGMENTED NEUTROPHIL / BASOPHIL / EOSINOPHIL / ERYTHROCYTE COUNT / HEMATOCRIT / HEMOGLOBIN / LEUKOCYTE COUNT / LYMPHOCYTE / MEAN CORPUSCULAR HEMOGLOBIN / MEAN CORPUSCULAR HEMOGLOBIN CONCENTRATION / MEAN CORPUSCULAR VOLUME / MONOCYTE / NEUTROPHIL / NUCLEATED RED BLOOD CELLS / PLATELET COUNT: tissue Blood; for ALANINE AMINOTRANSFERASE / ALBUMIN / ALKALINE PHOSPHATASE / ASPARTATE AMINOTRANSFERASE / BLOOD UREA NITROGEN / CARBON DIOXIDE / CHLORIDE / CHOLESTEROL / CREATINE PHOSPHOKINASE / CREATININE / GLUCOSE / LACTATE DEHYDROGENASE / LIPASE / PHOSPHORUS / POTASSIUM / SODIUM / TOTAL BILIRUBIN / TOTAL PROTEIN / URIC ACID: tissue Plasma
# [1] = 30 mg/kg, 120 h, dose level Low, time 5 day
# [2] = 2000 mg/kg, 72 h, dose level High, time 3 day
# [3] = 2000 mg/kg, 120 h, dose level High, time 5 day
smiles,measurement,setting,value
CC(C)NCC(O)c1ccc(NS(C)(=O)=O)cc1 (centres undefined) [SOTALOL],ABSOLUTE BASOPHIL,[1],0 CELLS/uL
same,ABSOLUTE EOSINOPHIL,[1],80.67 CELLS/uL
same,ABSOLUTE LYMPHOCYTE,[1],11724 CELLS/uL
same,ABSOLUTE MONOCYTE,[1],98 CELLS/uL
same,ABSOLUTE SEGMENTED NEUTROPHIL,[1],997.33 CELLS/uL
same,BASOPHIL,[1],0%
same,EOSINOPHIL,[1],0.67%
same,ERYTHROCYTE COUNT,[1],5.34 x10E6/uL
same,HEMATOCRIT,[1],34.2%
same,HEMOGLOBIN,[1],13.43 G/DL
same,LEUKOCYTE COUNT,[1],12.9 x10E3/uL
same,LYMPHOCYTE,[1],90.67%
same,MEAN CORPUSCULAR HEMOGLOBIN,[1],25.17 pg
same,MEAN CORPUSCULAR HEMOGLOBIN CONCENTRATION,[1],39.27 G/DL
same,MEAN CORPUSCULAR VOLUME,[1],64 fL
same,MONOCYTE,[1],0.67%
same,NEUTROPHIL,[1],8%
same,NUCLEATED RED BLOOD CELLS,[1],0 /100WBC
same,PLATELET COUNT,[1],1232.33 x10E3/uL
same,ALANINE AMINOTRANSFERASE,[1],48 u/L
same,ALBUMIN,[1],4.27 G/DL
same,ALKALINE PHOSPHATASE,[1],355 u/L
same,ASPARTATE AMINOTRANSFERASE,[1],104.33 u/L
same,BLOOD UREA NITROGEN,[1],17 mg/dL
same,CARBON DIOXIDE,[1],28.33 mmol/L
same,CHLORIDE,[1],105 MEQ/L
same,CHOLESTEROL,[1],70.67 mg/dL
same,CREATINE PHOSPHOKINASE,[1],193.67 u/L
same,CREATININE,[1],0.2 mg/dL
same,GLUCOSE,[1],131.67 mg/dL
same,LACTATE DEHYDROGENASE,[1],156 u/L
same,LIPASE,[1],9.33 u/L
same,PHOSPHORUS,[1],11.6 mg/dL
same,POTASSIUM,[1],6.59 MEQ/L
same,SODIUM,[1],150.53 MEQ/L
same,TOTAL BILIRUBIN,[1],0.2 mg/dL
same,TOTAL PROTEIN,[1],6.13 G/DL
same,URIC ACID,[1],1.17 mg/dL
same,ABSOLUTE BASOPHIL,[2],0 CELLS/uL
same,ABSOLUTE EOSINOPHIL,[2],0 CELLS/uL
same,ABSOLUTE LYMPHOCYTE,[2],13259 CELLS/uL
same,ABSOLUTE MONOCYTE,[2],47.67 CELLS/uL
same,ABSOLUTE SEGMENTED NEUTROPHIL,[2],926.67 CELLS/uL
same,BASOPHIL,[2],0%
same,EOSINOPHIL,[2],0%
same,ERYTHROCYTE COUNT,[2],5.36 x10E6/uL
same,HEMATOCRIT,[2],33.57%
same,HEMOGLOBIN,[2],13.17 G/DL
same,LEUKOCYTE COUNT,[2],14.23 x10E3/uL
same,LYMPHOCYTE,[2],93%
same,MEAN CORPUSCULAR HEMOGLOBIN,[2],24.57 pg
same,MEAN CORPUSCULAR HEMOGLOBIN CONCENTRATION,[2],39.23 G/DL
same,MEAN CORPUSCULAR VOLUME,[2],62.73 fL
same,MONOCYTE,[2],0.33%
same,NEUTROPHIL,[2],6.67%
same,NUCLEATED RED BLOOD CELLS,[2],0 /100WBC
same,PLATELET COUNT,[2],1424.33 x10E3/uL
same,ALANINE AMINOTRANSFERASE,[2],61 u/L
same,ALBUMIN,[2],3.9 G/DL
same,ALKALINE PHOSPHATASE,[2],388.67 u/L
same,ASPARTATE AMINOTRANSFERASE,[2],106.33 u/L
same,BLOOD UREA NITROGEN,[2],14 mg/dL
same,CARBON DIOXIDE,[2],21.33 mmol/L
same,CHLORIDE,[2],104 MEQ/L
same,CHOLESTEROL,[2],57.67 mg/dL
same,CREATINE PHOSPHOKINASE,[2],412.33 u/L
same,CREATININE,[2],0.15 mg/dL
same,GLUCOSE,[2],148 mg/dL
same,LACTATE DEHYDROGENASE,[2],629 u/L
same,LIPASE,[2],10 u/L
same,PHOSPHORUS,[2],11.93 mg/dL
same,POTASSIUM,[2],7.54 MEQ/L
same,SODIUM,[2],142.93 MEQ/L
same,TOTAL BILIRUBIN,[2],0.2 mg/dL
same,TOTAL PROTEIN,[2],5.5 G/DL
same,URIC ACID,[2],1.8 mg/dL
same,ABSOLUTE BASOPHIL,[3],0 CELLS/uL
same,ABSOLUTE EOSINOPHIL,[3],0 CELLS/uL
same,ABSOLUTE LYMPHOCYTE,[3],13770.67 CELLS/uL
same,ABSOLUTE MONOCYTE,[3],100.67 CELLS/uL
same,ABSOLUTE SEGMENTED NEUTROPHIL,[3],1095.33 CELLS/uL
same,BASOPHIL,[3],0%
same,EOSINOPHIL,[3],0%
same,ERYTHROCYTE COUNT,[3],5.87 x10E6/uL
same,HEMATOCRIT,[3],36.53%
same,HEMOGLOBIN,[3],14.37 G/DL
same,LEUKOCYTE COUNT,[3],14.97 x10E3/uL
same,LYMPHOCYTE,[3],92%
same,MEAN CORPUSCULAR HEMOGLOBIN,[3],24.47 pg
same,MEAN CORPUSCULAR HEMOGLOBIN CONCENTRATION,[3],39.33 G/DL
same,MEAN CORPUSCULAR VOLUME,[3],62.27 fL
same,MONOCYTE,[3],0.67%
same,NEUTROPHIL,[3],7.33%
same,NUCLEATED RED BLOOD CELLS,[3],0.33 /100WBC
same,PLATELET COUNT,[3],1192.33 x10E3/uL
same,ALANINE AMINOTRANSFERASE,[3],54.33 u/L
same,ALBUMIN,[3],4.33 G/DL
same,ALKALINE PHOSPHATASE,[3],480.33 u/L
same,ASPARTATE AMINOTRANSFERASE,[3],83 u/L
same,BLOOD UREA NITROGEN,[3],16.33 mg/dL
same,CARBON DIOXIDE,[3],24.33 mmol/L
same,CHLORIDE,[3],106 MEQ/L
same,CHOLESTEROL,[3],77 mg/dL
same,CREATINE PHOSPHOKINASE,[3],259.33 u/L
same,CREATININE,[3],0.22 mg/dL
same,GLUCOSE,[3],159.33 mg/dL
same,LACTATE DEHYDROGENASE,[3],78.67 u/L
same,LIPASE,[3],10.33 u/L
same,PHOSPHORUS,[3],13.13 mg/dL
same,POTASSIUM,[3],6.86 MEQ/L
same,SODIUM,[3],148.2 MEQ/L
same,TOTAL BILIRUBIN,[3],0.2 mg/dL
same,TOTAL PROTEIN,[3],6.13 G/DL
same,URIC ACID,[3],1.73 mg/dL

# Source: ChEMBL document CHEMBL3885881, “DrugMatrix”
